Where two headings read alike, the source gives them in different places.
Experiments:
[1] = tested on: pSer473 Akt in A2780 cells; test: pSer473 Akt assay to monitor PI3K pathway in A2780 cells (Biological Method 2, MSD); type: cell-based; conditions: Homo sapiens, inhibition of Akt phosphorylation
Summary of the method: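 A2780 ovarian cancer cells in DMEM/10% FBS were treated with compound for 1 h at 37 °C, then lysed. pSer473-Akt and total Akt were measured by MSD electrochemiluminescence immunoassay. The pSer473/total Akt ratio gave % inhibition versus DMSO, from which EC50 was derived.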

[2] = tested on: A2780 ovarian cancer cells; test: Cellular proliferation in A2780 cells, Cell Titer Glo (Biological Method 4); type: cell-based; conditions: Homo sapiens
Summary of the method: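 A2780 cells seeded at 1,000/well in DMEM with 10% FBS, at least 2 h before compound, then exposed 72 h at 37 °C, 5% CO2. Viable cells measured by Cell Titer Glo luminescence; EC50 calculated from duplicate conditions.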

[3] = tested on: Akt^Ser473 phosphorylation in A2780 xenograft tumors; test: In vivo target modulation (PK/PD) in A2780 ovarian cancer xenograft tumors (Biological Method 3); parameters: species or system nu/nu mice; conditions: for inhibition at 100 mg/kg: 100 mg/kg single oral dose; for inhibition at 100 mg/kg / inhibition at 60 mg/kg: A2780 xenograft tumors, read-out: Modulation of Akt^Ser473 phosphorylation (percentage inhibition compared to vehicle); for inhibition at 60 mg/kg: 60 mg/kg single oral dose
Description: (§1) A2780 ovarian cancer cells obtained from George Coukos (Fox Chase Cancer Center, University of Pennsylvania, Philadelphia, Pa.) were maintained in DMEM (Invitrogen, Inc.) supplemented with 10% heat-inactivated fetal bovine serum with 1% glutamine. Cells were propagated as recommended by the Dr. Coukos and colleagues. Female nu/nu mice (8-12 weeks old, 20-25 g, Charles River) were used for all in vivo pharmacology studies. The mice were housed and maintained in accordance with state and federal guidelines for the humane treatment and care of laboratory animals and received food and water ad libitum. Cancer cells were harvested from mid-log phase cultures using trypsin-EDTA (Invitrogen, Inc.). Five million cells were subcutaneously injected into the right flank of each mouse. Compound treatment was initiated when tumor size reached to 300-400 mm^3 for PK/PD studies and 200-300 mm^3 for efficacy studies. All compound treatment was administrated orally. Tumor volumes were determined by using StudyDirector software.
For PK/PD dose-dependent studies, tumor-bearing mice were given a single oral dose of compound at different concentrations (10, 30, 60 and 100 mg/kg or vehicle) and tumors were resected at 10 hr or 24 hr after dosing. Blood samples were taken by cardiac puncture using a syringe primed with heparin sulfate. Resected tumors were snap frozen on dry ice and pulverized using a liquid nitrogen-cooled cryomortar and pestle, and lysed in cold cell extraction buffer (Biosource) containing protease inhibitor tablet (Complete; EDTA-free, Amersham). Supernatants were taken after centrifugation of tumor lysates at 300×g for 10 min at 4° C. and the protein concentration in each supernatant was determined by BCA (BioRad). An equal amount of protein from each tumor lysate was loaded onto 10% Tris-glycine gels (Invitrogen), for sodiumdoceylsulfate-polyacrylamide gel electrophoresis (SDS-PAGE) after which proteins were transferred from the gel onto PVDF membrane. Membranes were probed with antibodies that recognize phosphoAkt^Ser473 or phosphoAkt^Thr308 (Cell Signaling) followed by secondary goat anti-rabbit IgG conjugated to HRP(Amersham). Positive bands were visualized by enhanced chemiluminescence with X-ray film. Similar procedures were used to determine total AKT in the same tumor lysates to serve as normalization for total protein in each determination. The density of the positive band on the X-ray film was scanned and the target modulation for each compound was expressed as percentage inhibition by each compound compared to vehicle treatment.
(§2) For efficacy studies, A2780 cancer cells (5×10^6 in 100 μl of DMEM culture medium) were injected subcutaneously into the right flank of each nu/nu mouse. […] Tumor growth and animal body weight was measured twice weekly with daily clinical observation to monitor potential toxicities related to the treatment. […] Activation of the PI3K signaling pathway results in the phosphorylation of the downstream signaling molecule Akt at Ser^473 and/or Thr^308. Compound modulation of Akt^Ser473 phosphorylation was examined in A2780 xenograft tumors at time points ranging from 30 min to 36 hr after a single compound dose at 60 or 100 mg/kg.

[4] = biological target: PI3 kinase alpha (Homo sapiens, UniProt P42336); test: PI3K ATP depletion assay (Biological Method 1, Assay 3; KinaseGlo luminescence); type: biochemical; conditions: ATP depletion assay, read-out: PI3 Kinase Alpha, IC50
Summary of the method: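 Compound in DMSO was mixed with 10 nM PI3 kinase and 5 μg/mL phosphatidylinositol, and the reaction was started with 2 μM ATP. It ran to about 50% ATP depletion and was stopped with KinaseGlo.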

[5] = tested on: A2780 tumor xenograft; test: Efficacy study in A2780 ovarian cancer xenograft model (Biological Method 3); type: in vivo, nu/nu mice
Description: as §1, §2

[6] = 60 mg/kg oral daily, A2780 model
[7] = ovarian cancer cell line A2780, Biological Method 4

PI3 kinase alpha, sequence (P42336 whole entry): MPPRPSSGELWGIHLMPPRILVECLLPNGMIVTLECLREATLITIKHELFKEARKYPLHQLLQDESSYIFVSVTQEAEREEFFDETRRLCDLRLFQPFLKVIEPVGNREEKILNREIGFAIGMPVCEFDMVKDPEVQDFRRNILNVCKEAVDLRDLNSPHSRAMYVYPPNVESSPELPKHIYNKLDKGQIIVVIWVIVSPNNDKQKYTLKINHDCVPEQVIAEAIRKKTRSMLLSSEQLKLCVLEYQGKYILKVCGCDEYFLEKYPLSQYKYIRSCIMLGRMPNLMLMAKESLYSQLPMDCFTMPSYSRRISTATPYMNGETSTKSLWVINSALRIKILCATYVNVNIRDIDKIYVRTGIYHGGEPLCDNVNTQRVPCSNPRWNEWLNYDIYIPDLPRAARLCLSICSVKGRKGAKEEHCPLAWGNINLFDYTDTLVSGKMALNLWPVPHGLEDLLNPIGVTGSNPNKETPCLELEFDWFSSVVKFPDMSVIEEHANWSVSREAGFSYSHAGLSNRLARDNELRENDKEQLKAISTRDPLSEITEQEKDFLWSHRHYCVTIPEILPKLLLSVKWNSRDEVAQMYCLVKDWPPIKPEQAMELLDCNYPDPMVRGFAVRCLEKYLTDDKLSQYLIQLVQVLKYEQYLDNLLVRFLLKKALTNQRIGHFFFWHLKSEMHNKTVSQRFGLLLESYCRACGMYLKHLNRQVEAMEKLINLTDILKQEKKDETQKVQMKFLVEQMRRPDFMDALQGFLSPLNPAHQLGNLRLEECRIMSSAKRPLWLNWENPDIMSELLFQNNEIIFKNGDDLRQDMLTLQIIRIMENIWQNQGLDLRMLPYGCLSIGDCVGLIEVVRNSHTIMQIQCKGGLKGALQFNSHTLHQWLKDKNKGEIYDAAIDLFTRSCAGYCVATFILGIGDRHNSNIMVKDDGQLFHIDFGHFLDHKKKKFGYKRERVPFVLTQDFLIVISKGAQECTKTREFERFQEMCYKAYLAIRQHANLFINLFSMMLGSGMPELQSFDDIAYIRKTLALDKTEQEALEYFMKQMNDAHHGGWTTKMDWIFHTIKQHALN
PI3 kinase alpha, sequence (P27986 whole entry partner): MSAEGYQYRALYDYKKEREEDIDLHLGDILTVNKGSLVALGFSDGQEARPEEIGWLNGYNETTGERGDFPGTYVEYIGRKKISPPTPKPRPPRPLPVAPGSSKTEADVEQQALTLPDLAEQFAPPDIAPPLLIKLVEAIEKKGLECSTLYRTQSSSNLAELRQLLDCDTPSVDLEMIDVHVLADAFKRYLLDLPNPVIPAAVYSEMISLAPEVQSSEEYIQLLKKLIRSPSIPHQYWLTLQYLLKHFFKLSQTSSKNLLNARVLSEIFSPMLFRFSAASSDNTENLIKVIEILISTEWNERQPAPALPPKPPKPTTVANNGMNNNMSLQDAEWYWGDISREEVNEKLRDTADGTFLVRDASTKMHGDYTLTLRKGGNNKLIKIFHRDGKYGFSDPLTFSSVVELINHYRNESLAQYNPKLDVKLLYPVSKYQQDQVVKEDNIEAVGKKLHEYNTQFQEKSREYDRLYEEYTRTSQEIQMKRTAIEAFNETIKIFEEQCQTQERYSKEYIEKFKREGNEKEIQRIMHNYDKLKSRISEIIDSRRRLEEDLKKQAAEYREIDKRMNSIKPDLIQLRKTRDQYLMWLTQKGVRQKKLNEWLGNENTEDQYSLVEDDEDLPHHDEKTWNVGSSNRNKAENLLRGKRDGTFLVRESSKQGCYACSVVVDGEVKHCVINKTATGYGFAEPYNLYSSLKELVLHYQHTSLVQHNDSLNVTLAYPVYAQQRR

| Compound | EC50 ([1]; A2780 cells) [µM] | EC50 ([2]; ovarian cancer cell line A2780) [µM] | IC50 [4] [µM] | also measured |
| --- | --- | --- | --- | --- |
| Nc1ccc(-c2cc(Nc3cnc4ccccc4c3)nc(N3CCOCC3)n2)cn1 [Compound 183] | < 1 | < 1 |  | inhibition at 100 mg/kg ([3]; Mus musculus, 8 hr): 50 to 75% |
| Cc1c(Nc2cnc3ccccc3c2)nc(N2CCOCC2)nc1-c1cnc(N)nc1 [Compound 103] | < 1 | < 1 | < 1 | inhibition at 100 mg/kg ([3]; Mus musculus, 8 hr): < 50% |
| Nc1ncc(-c2cc(OC3CCOCC3)nc(N3CCOCC3)n2)c(C(F)(F)F)n1 [Compound 66] | < 1 | < 10 | < 1 | inhibition at 60 mg/kg ([3]; Mus musculus, 10 hr): < 50% |
| Nc1cc(C(F)(F)F)c(-c2cc(N3CCOCC3)nc(N3CCOCC3)n2)cn1 [Compound 10] | < 1 | < 1 |  | Antitumor activity ([5]; 30 mg/kg oral b.i.d., A2780 model (FIG. 5)): significant antitumor activity; Tumor growth inhibition ([5]; 30 mg/kg oral daily, A2780 model): 40%; Tumor growth inhibition [5, 6]: 70%; Tumor growth inhibition ([5]; 100 mg/kg oral daily, A2780 model (FIG. 2)): tumor growth stasis; inhibition at 30 mg/kg ([3]; Mus musculus, A2780, 30 mg/kg oral b.i.d., read-out: Target inhibition in A2780 tumors, sustained over the whole dosing period): < 75%; inhibition at 60 mg/kg ([3]; Mus musculus, 10 hr): > 75%; inhibition at 100 mg/kg ([3]; Mus musculus, 10 hr): > 75% |
| COc1ccc(Nc2cc(-c3cnc(N)nc3)nc(N3CCOCC3)n2)cn1 [Compound 91] | < 1 | < 1 |  | Tumor growth inhibition ([5]; 10 mg/kg oral twice daily, A2780 tumors (FIG. 1)): no inhibitory activity; Tumor growth inhibition ([5]; 60 mg/kg oral twice daily, A2780 tumors (FIG. 1)): 50%; Duration of target modulation (50% inhibition) ([3]; 60 mg/kg, A2780 tumors): 8 h; inhibition at 100 mg/kg ([3]; Mus musculus, 8 hr): > 50% |
| CS(=O)(=O)c1ccc(Nc2cc(-c3ccc(N)nc3)nc(N3CCOCC3)n2)cc1 [Compound 112] | < 1 | < 10 | < 1 |  |
| COC(=O)N1CCC[C@H](Oc2cc(-c3cnc(N)nc3N)nc(N3CCOCC3)n2)C1 [Compound 75] | < 1 | < 10 | < 1 |  |
| Nc1ccc(-c2cc(Nc3cccc(-c4cnco4)c3)nc(N3CCOCC3)n2)cn1 [Compound 163] | < 1 | < 10 | < 1 |  |
| CN1CCC(Oc2ccc(Nc3cc(-c4cnc(N)nc4C(F)(F)F)nc(N4CCOCC4)n3)cn2)CC1 [Compound 62] | < 1 | < 1 | < 1 |  |
| CS(=O)(=O)c1cccc(-c2cc(-c3cnc(N)cc3C#N)nc(N3CCOCC3)n2)c1 [Compound 92] | < 1 | < 1 | < 1 |  |
| Nc1ncc(-c2cc(N3CCOC(c4ccccc4)C3)nc(N3CCOCC3)n2)cn1 (stereo not shown) [Compound 15] | < 1 | < 1 | < 1 |  |
| Nc1ncc(-c2cc(O[C@H]3CCCN(C(=O)OC4CCCC4)C3)nc(N3CCOCC3)n2)c(N)n1 [Compound 186] | < 1 | < 10 | < 1 |  |
| CC(=O)c1ccccc1Nc1cc(-c2ccc(N)nc2)nc(N2CCOCC2)n1 [Compound 172] | < 1 | < 10 | < 1 |  |
| Nc1ncc(-c2cc(Nc3ccccc3F)nc(N3CCOCC3)n2)cn1 [Compound 87] | < 1 | < 10 | < 1 |  |
| CS(=O)(=O)c1cccc(-c2cc(-c3cnc(N)nc3N)nc(N3CCOCC3)n2)c1 [Compound 125] | < 1 | < 1 | < 1 |  |
| CC(C)(C)OC(=O)N1CCC(Oc2cc(-c3cnc(N)nc3C(F)(F)F)nc(N3CCOCC3)n2)CC1 [Compound 27] | < 1 | < 1 | < 1 |  |
| CS(=O)(=O)N1CCC[C@@H](Oc2cc(-c3cnc(N)nc3N)nc(N3CCOCC3)n2)C1 [Compound 127] | < 1 | < 10 | < 1 |  |
| Nc1ncc(-c2cc(NC(=O)c3cccnc3)nc(N3CCOCC3)n2)cn1 [Compound 189] | < 1 | < 10 | < 1 |  |
| Nc1ncc(-c2cc(OC3CCOCC3)nc(N3CCOCC3)n2)c(N)n1 [Compound 84] | < 1 | < 1 | < 1 | Tumor growth inhibition [5, 6]: < 50%; inhibition at 60 mg/kg ([3]; Mus musculus, 10 hr): 50 to 75% |
| Nc1ncc(-c2cc(Nc3cccc(F)c3)nc(N3CCOCC3)n2)cn1 [Compound 111] | < 1 | < 10 | < 1 |  |
| Cc1c(Nc2ccc(OC(CO)CO)nc2)nc(N2CCOCC2)nc1-c1cnc(N)nc1 [Compound 212] |  |  |  | EC50 ([1]; A2780, Biological Method 2): < 10 µM; EC50 [2, 7]: < 25 µM; IC50 ([4]; Biological Method 1): < 1 µM |
| Nc1cc(C(F)(F)F)c(-c2cc(Nc3ccc(OC4CCNCC4)nc3)nc(N3CCOCC3)n2)cn1 [Compound 150] | < 1 | < 1 | < 1 |  |
| Nc1cc(C(F)(F)F)c(-c2cc(Nc3cccc(S(=O)(=O)N4CCCCC4)c3)nc(N3CCOCC3)n2)cn1 [Compound 207] |  |  |  | EC50 ([1]; A2780, Biological Method 2): < 10 µM; EC50 [2, 7]: < 1 µM; IC50 ([4]; Biological Method 1): < 1 µM |
| COc1ccc(Nc2cc(-c3cnc(N)cc3C(F)(F)F)nc(N3CCOCC3)n2)cn1 [Compound 199] |  |  |  | EC50 ([1]; A2780, Biological Method 2): < 1 µM; EC50 [2, 7]: < 10 µM; IC50 ([4]; Biological Method 1): < 1 µM |
| N#Cc1cnc(Nc2cc(-c3cnc(N)cc3C(F)(F)F)nc(N3CCOCC3)n2)s1 [Compound 144] | < 1 | < 10 | < 1 |  |
